Assay results as given in ChEMBL document CHEMBL1136604, “Cryptophycin affinity labels: synthesis and biological activity of a benzophenone analogue of cryptophycin-24” (Bioorg Med Chem Lett, 2003).
In brackets after ≈: the same amount, converted by molar mass.

Columns and labels:
MCF7S = assay: Inhibitory activity against MCF-7 cells after 72 hr cell growth; assay type: functional, cell-based; conditions: Homo sapiens
NCI/ADR-RES = assay: Inhibitory activity against MCF7-ADR cells after 72 hr cell growth; assay type: functional, cell-based; conditions: Homo sapiens
HCT-116 = assay: Inhibitory activity against HCT116 cells after 24 hr cell growth; assay type: functional, cell-based; conditions: Homo sapiens, HCT-116, 24 h
Tubulin = assay: Concentration required to reduce the amount of pelleted tubulin; assay type: protein-complex assay
KB = assay: Cytotoxicity against KB cells; assay type: functional, cell-based; conditions: Homo sapiens

SMILES | IC50 (MCF7S) | IC50 (NCI/ADR-RES) | IC50 (HCT-116) | IC50 (Tubulin) | IC50 (KB)
COc1ccc(C[C@H]2NC(=O)/C=C/C[C@@H]([C@H](C)[C@H]3O[C@@H]3c3ccc(C(=O)c4ccccc4)cc3)OC(=O)[C@H](CC(C)C)OC(=O)CCNC2=O)cc1 | 0.078 nM | 70 nM | 1.1 nM | 7400 nM | –
COc1ccc(C[C@H]2NC(=O)/C=C/C[C@@H]([C@H](C)[C@@H]3O[C@@H]3c3ccc(C(=O)c4ccccc4)cc3)OC(=O)[C@H](CC(C)C)OC(=O)CCNC2=O)cc1 | 6 nM | 447 nM | 253 nM | > 100000 nM | –
COc1ccc(C[C@H]2NC(=O)/C=C/C[C@@H]([C@H](C)[C@H]3O[C@@H]3c3ccccc3)OC(=O)[C@H](CC(C)C)OC(=O)CCNC2=O)cc1 [ARENASTATIN A] | 0.13 nM | 0.164 nM | 0.285 nM | 15000 nM | 0.005 ng/mL (≈ 0.00824 nM)
COc1ccc(C[C@H]2NC(=O)/C=C/C[C@@H]([C@H](C)[C@H]3O[C@@H]3c3ccccc3)OC(=O)[C@H](CC(C)C)OC(=O)[C@H](C)CNC2=O)cc1Cl [CRYPTOPHYCIN A] | 0.003 nM | 0.013 nM | 0.027 nM | 3700 nM | –
